# Source: patent publication US12534451B2, “Small molecule modulators of PanK” (St. Jude Children's Research Hospital, priority 2019, dated 2026)
# Biological target: human PANK3 (Homo sapiens (Human), UniProt Q9H999)
# Test: PANK activity assay (radiochemical, D-[1-14C]pantothenate)
# Assay type: biochemical
# Conditions: 5 nM human PANK3, 2.5 mM ATP, 45 μM pantothenate, 10 min at 37° C.; average ± data range
# Description: The PanK activity and Surface Plasmon Resonance assays were conducted as explained in the literature.
# If the IC^50 was determined to be in the nM range then the assay was repeated in the presence of 0-1 μM or 0-0.1 μM compound to more precisely determine the IC^50. All the experiments were repeated twice in duplicate and the data were an average ±data range.
# The experiments mimicking the mixture of ligands present in vivo were performed under different conditions. […] The IC^50 values for the structure-activity study were calculated by fitting the inhibition data to a one-site model of the Michaelis-Menten equation. […] Thus, the data were fit to Morrison's quadratic equation (GraphPad software) that accounts for the impact of enzyme inhibitor binding on the free concentration of inhibitor.
# Sequence of human PANK3 (Q9H999 whole entry): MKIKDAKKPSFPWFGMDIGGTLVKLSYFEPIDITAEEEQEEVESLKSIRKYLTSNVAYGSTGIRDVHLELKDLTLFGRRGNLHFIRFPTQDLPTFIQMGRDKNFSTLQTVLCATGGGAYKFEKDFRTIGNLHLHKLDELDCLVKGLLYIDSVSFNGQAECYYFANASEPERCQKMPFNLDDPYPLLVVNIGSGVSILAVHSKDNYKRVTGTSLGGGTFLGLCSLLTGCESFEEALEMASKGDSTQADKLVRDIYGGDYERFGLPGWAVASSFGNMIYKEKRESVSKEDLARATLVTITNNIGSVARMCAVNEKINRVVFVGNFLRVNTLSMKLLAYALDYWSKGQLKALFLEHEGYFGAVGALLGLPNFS
row,IC50 [nM],SMILES
1,25 ± 1.6,CN(C)c1ccc(CC(=O)N2CCN(c3nc4c(F)cc(F)cc4s3)CC2)cc1 [Lee-4296]
2,440 ± 45,"CN(C)c1ccc(CC(=O)N2CCN(c3ccc(C#N)nn3)CC2)cn1 [PZ-4069, 6-(4-(2-(6-(dimethylamino)pyridin-3-yl)acetyl)piperazin-1-yl)pyridazine-3-carbonitrile]"
3,65 ± 9.8,"CC(=O)Nc1ccc(CC(=O)N2CCN(c3ccc(C#N)nn3)CC2)cc1 [PZ-4070, N-(4-(2-(4-(6-cyanopyridazin-3-yl)piperazin-1-yl)-2-oxoethyl)phenyl)acetamide]"
4,11.1 ± 0.7,C[C@H]1CN(c2ccc(Cl)nn2)CCN1C(=O)Cc1ccc(N(C)C)cc1 [PZ-4111]
5,39.7 ± 4.7,C[C@@H]1CN(c2ccc(Cl)nn2)CCN1C(=O)Cc1ccc(N(C)C)cc1 [PZ-4112]
6,4 ± 0.3,CCS(=O)(=O)Nc1ccc(CC(=O)N2CCN(c3ccc(C#N)nn3)CC2)cc1 [PZ-4215]
7,27 ± 4,N#Cc1cnc(N2CCN(C(=O)Cc3ccc(C4CC4)cc3)CC2)cn1 [PZ-4284]
8,26 ± 3,O=C(Cc1ccc(C2CC2)cc1)N1CCN(c2nc3ccccc3s2)CC1 [PZ-4285]
9,370 ± 47,CN(C)c1ccc(CC(=O)N2CCN(c3nc4ccccc4s3)CC2)cc1 [PZ-4290]
10,54 ± 6.4,O=C(Cc1ccc(C2CC2)cc1)N1CCN(c2nc3cc(F)ccc3o2)CC1 [PZ-4303]
11,173 ± 48.5,O=C(Cc1ccc(C2CC2)cc1)N1CCN(c2nc3ccccc3o2)CC1 [PZ-4305]
12,987 ± 476,O=C(Cc1ccc(C2CC2)cc1)N1CCN(c2nc3ccccc3[nH]2)CC1 [PZ-4312]
13,391 ± 129,CN(C)c1ccc(CC(=O)N2CCN(c3nc4cccnc4s3)CC2)cc1 [PZ-4317]
14,183 ± 71,CN(C)c1ccc(CC(=O)N2CCN(c3nc4c(F)cccc4s3)CC2)cc1 [PZ-4318]
15,346 ± 100,CN(C)c1ccc(CC(=O)N2CCN(c3nc4cccnc4o3)CC2)cc1 [PZ-4319]
16,5.67 ± 0.39,CS(=O)(=O)Nc1ccc(CC(=O)N2CCN(c3nc4cccnc4s3)CC2)cc1 [PZ-4321]
17,9.9 ± 1.6,CS(=O)(=O)Nc1ccc(CC(=O)N2CCN(c3nc4cccnc4o3)CC2)cc1 [PZ-4323]
18,49 ± 3,O=C(Cc1ccc(C2CC2)c(F)c1)N1CCN(c2nc3cccnc3o2)CC1 [PZ-4343]
19,7.6 ± 0.48,O=C(Cc1ccc(C2CC2)cc1F)N1CCN(c2nc3cccnc3o2)CC1 [PZ-4344]
20,5.7 ± 0.49,O=C(Cc1ccc(C2CC2)c(F)c1)N1CCN(c2nc3ncccc3o2)CC1 [PZ-4348]
21,2.1 ± 0.26,O=C(Cc1ccc(C2CC2)cc1F)N1CCN(c2nc3ncccc3o2)CC1 [PZ-4349]
22,1.1 ± 0.12,"O=C(Cc1ccc(C2CC2)cc1)N1CCN(c2nc3ncc(F)cc3o2)CC1 [PZ-4350, 2-(4-cyclopropylphenyl)-1-(4-(6-fluorooxazolo[4,5-b]pyridin-2-yl)piperazin-1-yl)ethenone]"
23,0.86 ± 0.078,O=C(Cc1ccc(C2CC2)cc1F)N1CCN(c2nc3ncc(F)cc3o2)CC1 [PZ-4352]
24,1.95 ± 0.25,CS(=O)(=O)Nc1ccc(CC(=O)N2CCN(c3nc4ncc(F)cc4o3)CC2)cc1 [PZ-4357]
25,1.23 ± 0.17,O=C(Cc1ccc(C2CC2)cc1)N1CCN(c2nc3ncc(Cl)cc3o2)CC1 [PZ-4359]
26,5.6 ± 0.88,O=C(Cc1ccc(C2CC2)c(F)c1)N1CCN(c2nc3ncc(Cl)cc3o2)CC1 [PZ-4360]

row,IC50 [nM],SMILES
1,0.81 ± 0.15,O=C(Cc1ccc(C2CC2)cc1F)N1CCN(c2nc3ncc(Cl)cc3o2)CC1 [PZ-4361]
2,37.5 ± 2.4,O=C(Cc1ccc(Cl)cc1)N1CCN(c2nc3ncc(F)cc3o2)CC1 [PZ-4363]
3,77.3 ± 8.2,Cc1ccc2oc(N3CCN(C(=O)Cc4ccc(C5CC5)cc4)CC3)nc2n1 [PZ-4364]
4,3.4 ± 0.33,O=C(Cc1ccc(C2CC2)cc1F)N1CCN(c2nc3ccc(F)cc3o2)CC1 [PZ-4383]
5,2.1 ± 0.21,O=C(Cc1ccc(C2CC2)cc1)N1CCN(c2nc3cc(F)cnc3o2)CC1 [PZ-4386]
6,3.95 ± 0.26,CC(C)c1ccc(CC(=O)N2CCN(c3nc4cccnc4s3)CC2)cc1 [PZ-4432]
7,1.79 ± 0.09,O=C(Nc1ccc(C2CC2)cc1F)N1CCN(c2nc3c(F)cc(F)cc3s2)CC1 [PZ-4433]
8,1.04 ± 0.06,CC(C)c1ccc(NC(=O)N2CCN(c3nc4c(F)cc(F)cc4s3)CC2)cc1 [PZ-4434]
9,0.33 ± 0.02,CC(C)c1ccc(CC(=O)N2CCN(c3nc4ncc(F)cc4o3)CC2)cc1 [PZ-4435]
10,2 ± 0.18,O=C(Oc1ccc(C2CC2)cc1)N1CCN(c2nc3ncc(F)cc3o2)CC1 [PZ-4436]
11,1.37 ± 0.16,CC(C)c1ccc(CC(=O)N2CCN(c3nc4cc(F)cnc4o3)CC2)cc1 [PZ-4462]
12,10.3 ± 0.55,O=C(Cc1ccc(C2CC2)cc1)N1CCN(c2nc3cc(F)cnc3o2)CC1 [PZ-4463]
13,2.62 ± 0.18,CN(C)c1ccc(CC(=O)N2CCN(c3nc4ncc(F)cc4o3)CC2)cc1 [PZ-4467]
14,1.2 ± 0.13,CC(C)c1ccc(CC(=O)NCC2(CCl)CN(c3ccc(Cl)nn3)C2)cc1 [PZ-4468]
15,5.4 ± 0.42,"O=C(Cc1ccc(C2CC2)cc1)NCC1(CCl)CN(c2ccc(Cl)nn2)C1 [PZ-4469, N-((3-(chloromethyl)-1-(6-chloropyridazin-3-yl)azetidin-3-yl)methyl)-2-(4-cyclopropylphenyl)acetamide]"
16,3.88 ± 0.24,C[C@@H]1CN(c2nc3cc(F)cnc3o2)CCN1C(=O)Cc1ccc(C2CC2)cc1 [PZ-4470]
17,0.88 ± 0.09,CC(C)c1ccc(CC(=O)N2CCN(c3nc4cc(F)cnc4o3)C[C@H]2C)cc1 [PZ-4471]
18,21.8 ± 1.78,O=C(Cc1ccc(C2CC2)cc1)NCC1(CCl)CN(c2nc3cc(F)cnc3o2)C1 [PZ-4472]
19,7.51 ± 0.62,CC(C)c1ccc(CC(=O)NCC2(CCl)CN(c3nc4cc(F)cnc4o3)C2)cc1 [PZ-4473]
20,1.37 ± 0.14,C[C@H]1CN(C(=O)Cc2ccc(C3CC3)cc2)CCN1c1nc2cc(F)cnc2o1 [PZ-4474]
21,0.76 ± 0.05,CC(C)c1ccc(CC(=O)N2CCN(c3nc4cc(F)cnc4o3)[C@@H](C)C2)cc1 [PZ-4475]
22,125 ± 19.2,CC(C)c1ccc(CC(=O)N2CCN(c3ncc4ccsc4n3)CC2)cc1 [PZ-4478]
23,713 ± 294,O=C(Cc1ccc(C2CC2)cc1)N1CCN(c2ncc3ccsc3n2)CC1 [PZ-4479]
24,1110 ± 852,CC(=O)OCC1(CNC(=O)Cc2ccc(C3CC3)cc2)CN(c2ccc(Cl)nn2)C1 [PZ-4510]
25,606 ± 237,"O=C(Cc1ccc(C2CC2)cc1)NCC1(CO)CN(c2ccc(Cl)nn2)C1 [PZ-4511, N-((1-(6-chloropyridazin-3-yl)-3-(hydroxymethyl)azetidin-3-yl)methyl)-2-(4-cyclopropylphenyl)acetamide]"

row,SMILES,IC50 [nM]
1,"CS(=O)(=O)Nc1ccc(CC(=O)N2CCN(c3ccc(Cl)nn3)CC2)cc1 [PZ-4140, N-(4-(2-(4-(6-chloropyridazin-3-yl)piperazin-1-yl)-2-oxoethyl)phenyl)methanesulfonamide]",3.8 ± 0.1
2,CN(c1ccc(CC(=O)N2CCN(c3ccc(Cl)nn3)CC2)cc1)S(C)(=O)=O [PZ-4200],120 ± 11.2

# Tested on: Human C3A [HepG2/C3A] cells
# Test: Cellular total CoA determination in C3A cells
# Assay type: cell-based
# Conditions: 24 hrs of treatment
# Description: Human C3A [HepG2/C3A, derivative of HepG2] cells (ATCC #CRL-10741) were purchased from ATCC® and maintained in Eagle's minimum Essential medium (ATCC) supplemented with 2 mM glutamine, 10% fetal bovine serum (FCS, Altanta Biologicals), 50 U/ml penicillin and […] streptomycin. The C3A cell line was confirmed to be mycoplasma-free. Test compounds or vehicle control (DMSO) was added and after 24 hrs of treatment the cells were washed with PBS and harvested and subjected to total CoA determination.
# Cultured cells were resuspended in 2 ml cold water to which 500 μl of 0.25M KOH was added, derivatized with monobromobimane (mBBr, Life technologies) and quantified by HPLC. 30 mg of frozen tissue is homogenized in 2 ml of 1 mM KOH and then derivatized with mBBr. The mBBr derivatized samples were fractionated by reverse-phase HPLC using a Gemini C18 3 μm column (150×4.60 mm) from Phenomenex. The chromatography system was a Waters e2695 separation module with a UV/Vis and fluorescence detector and controlled by Empower 3 software. Solvent A was 50 mM potassium phosphate pH 4.6, and solvent B was 100% acetonitrile. Twenty microliters of sample was injected onto the column, and the flow rate was 0.5 ml/min. The HPLC program was the following: starting solvent mixture of 90% A/10% B, 0-2 min isocratic with 10% B, 2-6 min linear gradient from 10% B to 15% B, 6-18 min concave gradient from 15% B to 40% B, 18-23 min isocratic with 40% B, 23-25 min linear gradient from 40 to 10%, and 25-30 min isocratic with 10% B. The UV/vis detector was set at 393 nm, and the fluorescence detector was set with excitation at 393 nm and emission at 470 nm. The elution position of the mBBr-CoA, was determined by comparison with mBBr-CoA prepared from commercial CoA (Avanti Polar Lipids). The areas under the mBBr-derivatized CoA was integrated and compared to known concentrations of the mBBr-CoA standard.
row,SMILES,C3A CoA% elevation [%]
1,CN(C)c1ccc(CC(=O)N2CCN(c3nc4c(F)cc(F)cc4s3)CC2)cc1 [Lee-4296],198.6
2,"CN(C)c1ccc(CC(=O)N2CCN(c3ccc(C#N)nn3)CC2)cc1 [PZ-4060, 6-(4-(2-(4-(dimethylamino)phenyl)acetyl)piperazin-1-yl)pyridazine-3-carbonitrile]",230.5
3,"CN(C)c1ccc(CC(=O)N2CCN(c3ccc(Cl)nn3)CC2)cc1 [PZ-4061, 1-(4-(6-chloropyridazin-3-yl)piperazin-1-yl)-2-(4-(dimethylamino)phenyl)ethanone]",418.7
4,"CC(=O)Nc1ccc(CC(=O)N2CCN(c3ccc(Cl)nn3)CC2)cc1 [PZ-4071, N-(4-(2-(4-(6-chloropyridazin-3-yl)piperazin-1-yl)-2-oxoethyl)phenyl)acetamide]",185.3
5,"CS(=O)(=O)Nc1ccc(CC(=O)N2CCN(c3ccc(Cl)nn3)CC2)cc1 [PZ-4140, N-(4-(2-(4-(6-chloropyridazin-3-yl)piperazin-1-yl)-2-oxoethyl)phenyl)methanesulfonamide]",64.4
6,CS(=O)(=O)Nc1ccc(CC(=O)N2CCN(c3ccc(C#N)nn3)CC2)cc1 [PZ-4202],183.3
7,CCS(=O)(=O)Nc1ccc(CC(=O)N2CCN(c3ccc(C#N)nn3)CC2)cc1 [PZ-4215],160.9
8,CCS(=O)(=O)Nc1ccc(CC(=O)N2CCN(c3ccc(Cl)nn3)CC2)cc1 [PZ-4216],54.9
9,"O=C(Cc1ccc(C2CC2)cc1)N1CCN(c2ccc(C(F)(F)F)nn2)CC1 [PZ-4283, 2-(4-cyclopropylphenyl)-1-(4-(6-(trifluoromethyl)pyridazin-3-yl)piperazin-1-yl)ethanone]",218.2
10,N#Cc1cnc(N2CCN(C(=O)Cc3ccc(C4CC4)cc3)CC2)cn1 [PZ-4284],448.2
11,O=C(Cc1ccc(C2CC2)cc1)N1CCN(c2nc3ccccc3s2)CC1 [PZ-4285],223.7
12,CS(=O)(=O)Nc1ccc(CC(=O)N2CCN(c3ccc(C(F)(F)F)nn3)CC2)cc1 [PZ-4295],140.8
